In patent publication US9273046B2, “Fused tricyclic compounds as Raf kinase inhibitors” (BeiGene, LTD., priority 2011, dated 2016):

Columns and labels:
[1] = biological target: B-Raf (V600E) (Homo sapiens (Human), UniProt P15056, V600E); assay: Raf IC50 assay, time-resolved fluorescence energy transfer (TR-FRET), B-Raf; type: biochemical; details: 0.0625 nM B-Raf, 0.1 mM ATP, GST-tagged MEK1 substrate, 60 min preincubation; read-out: B-Raf (V600E) IC50
Procedure: The enzyme was incubated with the compounds at room temperature for 60 minutes and the reactions were initiated by the addition of ATP and GST-MEK1. […] Plates were sealed and incubated at room temperature for 2 hours, and then the TR-FRET signals were read on BMG PHERAstar FS instrument. The IC50 for each compound was calculated by non linear regression by Graphpad Prism software.

[2] = biological target: C-Raf (Y340D/Y341D) (Homo sapiens (Human), UniProt P04049, Y340D/Y341D); assay: Raf IC50 assay, time-resolved fluorescence energy transfer (TR-FRET), C-Raf; type: biochemical; details: 0.5 nM C-Raf, 0.1 mM ATP, GST-tagged MEK1 substrate, 60 min preincubation
Procedure: The assay was carried out in reactions (10 μL) containing 0.0625 nM B-Raf or 0.5 nM C-Raf, 25 mM Tris pH7.4, 10 mM MgCl2, 0.5 mM EGTA, 0.5 mM […], 5 mM beta-glycerophosphate, 0.01% Triton X-100, 2.5 mM DTT, 0.1% BSA, 0.1 mM ATP, 13.7 nM GST-tagged MEK1 (Full-length protein with K97R mutation, recombinant protein purified from bacterial expression system) and 0-5 μM compounds disclosed herein (final concentration of 1% DMSO). The enzyme was incubated with the compounds at room temperature for 60 minutes and the reactions were initiated by the addition of ATP and GST-MEK1. After incubating at room temperature for 60 minutes, an equal volume of stop buffer containing 25 mM Tris pH7.4, 400 mM KF, 50 mM EDTA, 0.01% BSA, 0.01% Triton X-100, 1 test of Eu3+ Cryptate-conjugated rabbit polyclonal antibody anti-Phospho MEK1/2 (Ser217/221) and 1 test of d2-conjugated mouse monoclonal antibody anti-glutathione S-transferase was added to stop the reactions. Plates were sealed and incubated at room temperature for 2 hours, and then the TR-FRET signals were read on BMG PHERAstar FS instrument. The IC50 for each compound was calculated by non linear regression by Graphpad Prism software.

Chain of B-Raf (V600E) (P15056 whole entry V600E): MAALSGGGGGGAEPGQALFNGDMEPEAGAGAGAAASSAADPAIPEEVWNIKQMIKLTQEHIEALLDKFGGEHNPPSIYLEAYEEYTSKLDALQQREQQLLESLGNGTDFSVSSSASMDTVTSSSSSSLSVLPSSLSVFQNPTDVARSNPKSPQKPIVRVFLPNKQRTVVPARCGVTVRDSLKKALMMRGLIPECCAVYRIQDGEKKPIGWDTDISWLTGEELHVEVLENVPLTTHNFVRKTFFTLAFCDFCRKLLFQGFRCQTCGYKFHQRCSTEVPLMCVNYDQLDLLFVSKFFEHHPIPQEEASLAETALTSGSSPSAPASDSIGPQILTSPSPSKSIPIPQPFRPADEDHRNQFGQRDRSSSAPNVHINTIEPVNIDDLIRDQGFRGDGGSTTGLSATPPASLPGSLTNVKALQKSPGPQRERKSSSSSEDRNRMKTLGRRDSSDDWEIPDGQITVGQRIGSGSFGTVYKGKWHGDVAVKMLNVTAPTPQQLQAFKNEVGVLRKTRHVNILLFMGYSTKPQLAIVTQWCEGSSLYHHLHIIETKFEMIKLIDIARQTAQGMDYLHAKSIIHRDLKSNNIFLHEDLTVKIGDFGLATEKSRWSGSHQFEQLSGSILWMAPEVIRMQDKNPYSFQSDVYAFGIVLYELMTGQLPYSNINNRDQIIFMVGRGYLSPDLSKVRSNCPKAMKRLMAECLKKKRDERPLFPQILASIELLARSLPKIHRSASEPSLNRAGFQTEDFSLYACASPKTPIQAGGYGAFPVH
Chain of C-Raf (Y340D/Y341D) (P04049 whole entry Y340D/Y341D): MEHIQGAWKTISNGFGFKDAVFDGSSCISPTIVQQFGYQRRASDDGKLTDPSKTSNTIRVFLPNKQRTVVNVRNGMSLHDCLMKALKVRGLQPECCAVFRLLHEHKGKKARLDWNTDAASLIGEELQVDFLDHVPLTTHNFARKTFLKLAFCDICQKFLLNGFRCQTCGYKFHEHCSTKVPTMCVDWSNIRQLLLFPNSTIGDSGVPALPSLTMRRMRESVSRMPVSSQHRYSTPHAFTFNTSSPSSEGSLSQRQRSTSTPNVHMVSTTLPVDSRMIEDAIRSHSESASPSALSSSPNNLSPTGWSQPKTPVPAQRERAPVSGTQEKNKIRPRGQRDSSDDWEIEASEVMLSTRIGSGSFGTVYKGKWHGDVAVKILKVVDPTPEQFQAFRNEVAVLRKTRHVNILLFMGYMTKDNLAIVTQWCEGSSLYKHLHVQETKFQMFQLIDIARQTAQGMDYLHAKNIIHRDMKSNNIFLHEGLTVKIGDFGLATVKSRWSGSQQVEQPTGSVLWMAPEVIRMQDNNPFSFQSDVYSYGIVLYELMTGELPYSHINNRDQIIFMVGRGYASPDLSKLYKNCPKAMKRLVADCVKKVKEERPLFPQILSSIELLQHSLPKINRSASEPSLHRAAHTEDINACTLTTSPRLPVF

Cn1c(C2C3Oc4ccc(Oc5ccnc6c5CCC(=O)N6)cc4C32)nc2ccccc21 (stereo not drawn) [Compound 2.15] was tested. Which IC50 [1] did it give?
Its IC50 is 12 nM.

What about the IC50 [2] of the same compound?
The IC50 was 3.6 nM.

For COc1ccc2nc(C3C4Oc5ccc(Oc6ccnc7c6CCC(=O)N7)cc5C43)[nH]c2c1 (stereo not drawn) [Compound 2.16], which IC50 [1] is on record?
The IC50 was 15 nM.

What about the IC50 [2] of the same compound?
The IC50 was 3.8 nM.

For O=C1CCc2c(Oc3ccc4c(c3)C3C(O4)C3c3nc4cc(Cl)c(F)cc4[nH]3)ccnc2N1 (stereo not drawn) [Compound 2.17], which IC50 [1] is on record?
Its IC50 is 5.4 nM.

What about the IC50 [2] of the same compound?
The IC50 was 5.9 nM.

For O=C1CCc2c(Oc3ccc4c(c3)C3C(O4)C3c3nc4cccc(C(F)(F)F)c4[nH]3)ccnc2N1 (stereo not drawn) [Compound 2.18], which IC50 [1] is on record?
The IC50 was 89 nM.

What about the IC50 [2] of the same compound?
Its IC50 is 6.2 nM.

With O=C1CCc2c(Oc3ccc4c(c3)C3C(O4)C3c3nc4cccc(F)c4[nH]3)ccnc2N1 (stereo not drawn) [Compound 2.19] as the compound, how does the IC50 [1] read?
Its IC50 is 11 nM.

What about the IC50 [2] of the same compound?
The IC50 was 1.6 nM.

For CC(C)(C)c1ccc2nc(C3C4Oc5ccc(Oc6ccnc7c6CCC(=O)N7)cc5C43)[nH]c2c1 (stereo not drawn) [Compound 2.20], which IC50 [1] is on record?
The IC50 was 33 nM.

And the IC50 [2]?
Its IC50 is 4.4 nM.

For NC(=O)c1ccc2nc(C3C4Oc5ccc(Oc6ccnc7c6CCC(=O)N7)cc5C43)[nH]c2c1 (stereo not drawn) [Compound 2.22], which IC50 [1] is on record?
The IC50 was 4 nM.

And the IC50 [2]?
Its IC50 is 1 nM.

How did the IC50 [1] turn out when Cn1c(C2C3Oc4ccc(Oc5ccnc6c5CCC(=O)N6)cc4C32)nc2ccc(C(F)(F)F)cc21 (stereo not drawn) [Compound 2.23] was run?
Its IC50 is 204 nM.

What about the IC50 [2] of the same compound?
The IC50 was 35 nM.

What does the source list for Cn1c(C2C3Oc4ccc(Oc5ccnc6c5CCC(=O)N6)cc4C32)nc2cc(C(F)(F)F)ccc21 (stereo not drawn) [Compound 2.24]?
IC50 [1]: 47 nM; IC50 [2]: 4.3 nM

Which results are given for O=C1CCc2c(Oc3cccc4c3OC3C(c5nc6ccc(C(F)(F)F)cc6[nH]5)C43)ccnc2N1 (stereo not drawn) [Compound 2.25]?
IC50 [1]: 849 nM; IC50 [2]: 36 nM

Which IC50 [1] does the source give for O=C1CCc2c(Oc3ccc4c(c3)C3C(O4)C3c3nc(-c4ccncc4)c[nH]3)ccnc2N1 (stereo not drawn) [Compound 2.31] here?
Its IC50 is 3.7 nM.

And the IC50 [2]?
Its IC50 is 0.35 nM.

For O=C1CCc2c(Oc3ccc4c(c3)C3C(O4)C3c3nc(-c4ccccc4Cl)c[nH]3)ccnc2N1 (stereo not drawn) [Compound 2.32], which IC50 [1] is on record?
Its IC50 is 3.3 nM.

And the IC50 [2]?
The IC50 was 0.9 nM.
